According to patent US5032597A, “Method of using phenylquinolinecarboxylic acids and derivatives for lymthoid leukemia treatment in a mammal” (priority 1987, dated 1991):
Values after ≈ are worked out from the molar mass of the structure shown. Structures can show the parent of a compound that is named as a salt.

Columns and labels:
[1] = test system: L1210 leukemia; assay: Lymphoid Leukemia L1210, survival of tumored mice; assay type: in vivo, CD2F1 mice; conditions: for response vs control in vivo at 200 mg/kg: 200 mg/kg i.p.; for response vs control in vivo at 25 mg/kg: 25 mg/kg i.p.; for response vs control in vivo at 300 mg/kg: 300 mg/kg i.p.
Procedure, shortened: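 Male CD2 F1 mice, six per group, received 10^5 L1210 cells i.p. on day 0. Compounds in hydroxypropylcellulose, saline/Tween 80 or saline were given i.p. at various doses once daily on days 1-9, with vehicle controls.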

[2] = test system: human colon carcinoma cells HCT-15; assay: Human colon tumor test in vitro, HCT-15 cell growth inhibition; assay type: cell-based; conditions: HCT-15 cells, compound day 1 to day 4; for in vitro HCT-15 ID50 (50 percent inhibition of number of doublings): 4320 min; for IC50: Homo sapiens, HCT-15, 72 h, read-out: in vitro HCT-15 ID50 (50 percent inhibition of number of doublings)
Procedure: The compound of this invention were also tested for their ability to inhibit the growth of human colon carcinoma cells in vitro.
The human colon carcinoma cells, designated HCT-15, were derived from a specimen of an adenocarcinoma of human colon removed during surgery. The cells were grown in Roswell Park Medical Institute (RPMI) Medium 1640 supplemented with 10% heat inactivated fetal calf serum, penicillin (100 units/ml), streptomycin (100 μg/ml), gentamicin (20 μg/ml), fungizone (25 μg/ml), 0.075 percent sodium bicarbonate, […] 4-(2-hydroxyethyl)-1-piperazineethanesulfonic acid and […] N-tris(hydroxymethyl)methylglycine. […] On day 1 cells from sample dishes were harvested using trypsin (0.25%) treatment and counted with a hemocytometer to determine the number of cells per dish at the time of the addition of the compounds. Compounds of this invention were added in varying concentrations to other cultures. On day 4, treated and control cultures were harvested by trypsin treatment and the number of cells was determined. The number of doublings for the control cells was determined from the cell numbers on days 1 and 4. The ID50, the concentration of compound required to inhibit by 50 percent the number of doublings, was then calculated from the dose-response curve in which cell numbers were plotted on log-log paper against compound concentrations in micrograms per ml.

[3] = Mus musculus, L1210, ip, 720 h, read-out: L1210 Leukemia % T/C (median survival time)
[4] = Mus musculus, L1210, ip, 720 h, 100 mg/kg i.p., read-out: L1210 Leukemia % T/C (median survival time)

With Cc1ccc2nc(-c3ccc(C4CCCCC4)cc3)c(C)c(C(=O)O)c2c1 [Example 6] the response vs control in vivo at 400 mg/kg ([1]; Mus musculus, L1210, ip, 720 h, 400 mg/kg i.p., read-out: L1210 Leukemia % T/C (median survival time)) was 162% and the “in vitro HCT-15 ID50 (50 percent inhibition of number of doublings)” value [2] was 0.24 µg/mL.

O=C(O)c1cc(-c2ccc(C3CCCCC3)cc2)nc2ccc(Cl)cc12 [Example 4] showed a response vs control in vivo at 200 mg/kg [1, 3] of 128% and an IC50 [2] of 0.48 µg/mL (≈ 1.31 µM).

In the case of CCN(CC)CCOC(=O)c1c(C)c(-c2ccc(-c3ccccc3F)cc2)nc2ccc(F)cc12 [Example 201], the response vs control in vivo at 100 mg/kg [1, 4] is reported as 175% and the IC50 [2] is reported as > 1 µg/mL.

For Cc1c(-c2ccc(Oc3ccc(Cl)cc3)cc2)nc2ccc(F)cc2c1C(=O)O [Example 29], the “L1210 Leukemia % T/C (median survival time)” value ([1]; 18 mg/kg i.p.) was 194% and the IC50 [2] was < 0.5 µg/mL.

In the case of Cc1c(-c2ccc(Oc3ccccc3)cc2)nc2ccc(F)cc2c1C(=O)O [Example 11], the response vs control in vivo at 25 mg/kg [1, 3] is reported as 176% and the “in vitro HCT-15 ID50 (50 percent inhibition of number of doublings)” value [2] is reported as 0.19 µg/mL.

Cc1c(-c2ccc(Cc3ccccc3)cc2)nc2ccc(Cl)cc2c1C(=O)O [Example 112] was tested, and the response vs control in vivo at 25 mg/kg [1, 3] was 128% and the IC50 [2] was < 0.5 µg/mL.

In the case of Cc1c(-c2cc(-c3ccccc3)cs2)nc2ccc(F)cc2c1C(=O)O [Example 44], the response vs control in vivo at 100 mg/kg [1, 4] is reported as 136% and the IC50 [2] is reported as < 0.1 µg/mL.

With CCc1c(-c2ccc(-c3ccccc3)cc2)nc2ccc(F)cc2c1C(=O)O [Example 18] the response vs control in vivo at 100 mg/kg [1, 4] was 185% and the “in vitro HCT-15 ID50 (50 percent inhibition of number of doublings)” value [2] was < 0.50 µg/mL.

In the case of Cc1c(-c2ccc(Oc3ccccc3)cc2)nc2ccc(Cl)cc2c1C(=O)O [Example 20], the response vs control in vivo at 200 mg/kg [1, 3] is reported as 211% and the IC50 [2] is reported as < 0.5 µg/mL.

For O=C(O)c1cc(-c2ccc(Oc3ccc(F)cc3)cc2)nc2ccc(F)cc12 [Example 187], the response vs control in vivo at 75 mg/kg ([1]; Mus musculus, L1210, ip, 720 h, 75 mg/kg i.p., read-out: L1210 Leukemia % T/C (median survival time)) was 131% and the IC50 [2] was < 0.5 µg/mL.

In the case of Cc1c(-c2ccc(-c3ccccc3F)cc2)nc2ccc(F)cc2c1C(=O)OCCN(C)C [Example 198, [6-Fluoro-2-(2'-fluoro-1,1'-biphenyl-4-yl)3-methyl-[(2-dimethylamino)ethyl]ester-4-quinolinecarboxylic acid] hydrochloride], the response vs control in vivo at 100 mg/kg [1, 4] is reported as 178% and the “in vitro HCT-15 ID50 (50 percent inhibition of number of doublings)” value ([2]; hydrochloride) is reported as < 10^-3 μg/ml.

With Cc1ccc2nc(-c3ccc(-c4ccccc4)cc3)c(C)c(C(=O)O)c2c1Cl [Example 83] the response vs control in vivo at 100 mg/kg [1, 4] was 198% and the IC50 [2] was > 1 µg/mL.

With CCCCCCc1ccc(-c2nc3ccc(F)cc3c(C(=O)O)c2C)cc1 [Example 180] the response vs control in vivo at 18 mg/kg ([1]; Mus musculus, L1210, ip, 720 h, 18 mg/kg i.p., nonoptimal Q1DX9 instead of Q3DX9, read-out: L1210 Leukemia % T/C (median survival time)) was 101% and the “in vitro HCT-15 ID50 (50 percent inhibition of number of doublings)” value [2] was < 0.50 µg/mL.

For CCCCCCCCCCc1ccc(-c2nc3ccc(F)cc3c(C(=O)O)c2C)cc1 [Example 7], the response vs control in vivo at 200 mg/kg [1, 3] was 136% and the “in vitro HCT-15 ID50 (50 percent inhibition of number of doublings)” value [2] was 2.30 µg/mL.

In the case of Cc1cc2c(C(=O)O)c(C)c(-c3ccc(-c4ccccc4)cc3)nc2cc1Cl [Example 58], the response vs control in vivo at 150 mg/kg ([1]; Mus musculus, L1210, ip, 720 h, 150 mg/kg i.p., read-out: L1210 Leukemia % T/C (median survival time)) is reported as 141% and the “in vitro HCT-15 ID50 (50 percent inhibition of number of doublings)” value [2] is reported as > 0.50 µg/mL.

With Cc1ccc(-c2ccc(-c3nc4ccc(F)cc4c(C(=O)O)c3C)cc2)cc1 [Example 30] the response vs control in vivo at 300 mg/kg [1, 3] was 291% and the IC50 [2] was < 0.5 µg/mL.

CCc1c(-c2ccc(-c3ccccc3)cc2)nc2ccc(F)cc2c1C(=O)O [Example 108] was tested, and the “L1210 Leukemia % T/C (median survival time)” value ([1]; 100 mg/kg i.p.) was 166% and the “in vitro HCT-15 ID50 (50 percent inhibition of number of doublings)” value [2] was 0.10 µg/mL.

For Cc1c(-c2ccc(Oc3ccccc3)cc2)nc2ccc(F)cc2c1C(=O)O [Example 101], the response vs control in vivo at 50 mg/kg ([1]; Mus musculus, L1210, ip, 720 h, 50 mg/kg i.p., read-out: L1210 Leukemia % T/C (median survival time)) was 154% and the “in vitro HCT-15 ID50 (50 percent inhibition of number of doublings)” value [2] was 0.41 µg/mL.

In the case of Cc1c(-c2ccc(SCc3ccccc3)cc2)nc2ccc(F)cc2c1C(=O)O [Example 26], the response vs control in vivo at 300 mg/kg [1, 3] is reported as 136% and the IC50 [2] is reported as < 0.5 µg/mL.
